Experimental data from patent US12077503B2, “Substituted cyclic amides and their use as herbicides” (FMC CORPORATION, priority 2015, dated 2024).

Experiments:
Assay in all cases: Test A postemergence
Type in all cases: in vivo
[1] = test system: wheat (Triticum aestivum); settings: Triticum aestivum, post-emergence, 240 h, Postemergence; for plant injury at 125 g/ha: 125 g ai/ha, visual rating about 10 d after treatment, read-out: Wheat plant response rating (0 to 100 scale); for plant injury at 500 g/ha: 500 g ai/ha, visual injury, 0 to 100 scale (0 no effect, 100 complete control), approx. 10 d, read-out: Plant response rating, Wheat
Method in brief: (§1)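 Each rating is a visual injury score from 0 to 100 given about 10 d after treatment, judged against untreated controls kept alongside in the greenhouse. In loam soil–sand blend, seeds got a preemergence directed soil spray, while postemergence plants were 2 to 10 cm tall at spraying.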

[2] = test system: ragweed (common ragweed, Ambrosia elatior); settings: Ambrosia artemisiifolia, post-emergence, 240 h, Postemergence; for pest or weed control at 125 g/ha: 125 g ai/ha, visual rating about 10 d after treatment, read-out: Ragweed plant response rating (0 to 100 scale); for pest or weed control at 500 g/ha: 500 g ai/ha, visual injury, 0 to 100 scale (0 no effect, 100 complete control), approx. 10 d, read-out: Plant response rating, Ragweed
Method in brief: as §1

[3] = test system: barnyardgrass (Echinochloa crus-galli); settings: Echinochloa crus-galli, post-emergence, 240 h, Postemergence; for pest or weed control at 125 g/ha: 125 g ai/ha, visual rating about 10 d after treatment, read-out: Barnyardgrass plant response rating (0 to 100 scale, 0 no effect, 100 complete control); for pest or weed control at 500 g/ha: 500 g ai/ha, visual injury, 0 to 100 scale (0 no effect, 100 complete control), approx. 10 d, read-out: Plant response rating, Barnyardgrass
Method in brief: as §1

[4] = test system: pigweed (Amaranthus retroflexus); settings: Amaranthus retroflexus, post-emergence, 240 h, Postemergence; for pest or weed control at 125 g/ha: 125 g ai/ha, visual rating about 10 d after treatment, read-out: Pigweed plant response rating (0 to 100 scale); for pest or weed control at 500 g/ha: 500 g ai/ha, visual injury, 0 to 100 scale (0 no effect, 100 complete control), approx. 10 d, read-out: Plant response rating, Pigweed
Method in brief: as §1

[5] = test system: Galium (catchweed bedstraw, Galium aparine); settings: Galium, post-emergence, 240 h, Postemergence; for pest or weed control at 125 g/ha: 125 g ai/ha, visual rating about 10 d after treatment, read-out: Galium plant response rating (0 to 100 scale); for pest or weed control at 500 g/ha: 500 g ai/ha, visual injury, 0 to 100 scale (0 no effect, 100 complete control), approx. 10 d, read-out: Plant response rating, Galium
Method in brief: as §1

corn (Zea mays) = settings: Zea mays, post-emergence, 240 h, Postemergence; for plant injury at 125 g/ha: 125 g ai/ha, visual rating about 10 d after treatment, read-out: Corn plant response rating (0 to 100 scale); for Corn plant response rating (crop injury, 0 = no effect, 100 = complete kill) at 500 g/ha: 500 g ai/ha, visual injury, 0 to 100 scale (0 no effect, 100 complete control), approx. 10 d
Method in brief: as §1

Q: `COc1cc([C@H]2CN(C)C(=O)[C@@H]2C(=O)Nc2ccccc2F)ccc1F` [Compound 1298] was tested. Which plant injury at 125 g/ha [1] did it give?
A: The plant injury at 125 g/ha was 0%.

Q: And the plant injury at 500 g/ha [1]?
A: The plant injury at 500 g/ha was 20%.

Q: What about the pest or weed control at 125 g/ha [2] of the same molecule?
A: The pest or weed control at 125 g/ha was 0%.

Q: And the pest or weed control at 500 g/ha [2]?
A: The pest or weed control at 500 g/ha was 0%.

Q: What about the pest or weed control at 125 g/ha [3] of the same molecule?
A: The pest or weed control at 125 g/ha was 80%.

Q: And the pest or weed control at 500 g/ha [3]?
A: The pest or weed control at 500 g/ha was 80%.

Q: And the pest or weed control at 125 g/ha [4]?
A: The pest or weed control at 125 g/ha was 0%.

Q: What about the pest or weed control at 500 g/ha [4] of the same molecule?
A: The pest or weed control at 500 g/ha was 0%.

Q: And the pest or weed control at 125 g/ha [5]?
A: Its pest or weed control at 125 g/ha is 0%.

Q: And the pest or weed control at 500 g/ha [5]?
A: Its pest or weed control at 500 g/ha is 20%.

Q: What about the plant injury at 125 g/ha (corn (Zea mays)) of the same molecule?
A: Its plant injury at 125 g/ha is 0%.

Q: And the Corn plant response rating (crop injury, 0 = no effect, 100 = complete kill) at 500 g/ha (corn (Zea mays))?
A: Its Corn plant response rating (crop injury, 0 = no effect, 100 = complete kill) at 500 g/ha is 0%.

Q: What does the source list for `COc1cc([C@H]2CN(C)C(=O)[C@@H]2C(=O)Nc2cccc(F)c2C)ccc1F` [Compound 1300]?
A: plant injury at 125 g/ha [1]: 0%; plant injury at 500 g/ha [1]: 50%; pest or weed control at 125 g/ha [2]: 0%; pest or weed control at 500 g/ha [2]: 0%; pest or weed control at 125 g/ha [3]: 80%; pest or weed control at 500 g/ha [3]: 90%; pest or weed control at 125 g/ha [4]: 0%; pest or weed control at 500 g/ha [4]: 0%; pest or weed control at 125 g/ha [5]: 20%; pest or weed control at 500 g/ha [5]: 40%; plant injury at 125 g/ha (corn (Zea mays)): 20%; Corn plant response rating (crop injury, 0 = no effect, 100 = complete kill) at 500 g/ha (corn (Zea mays)): 60%

Q: With `CN1C[C@H](c2cccc(C(C)(F)F)c2)[C@@H](C(=O)Nc2ccc(F)cc2F)C1=O` [Compound 1319] as the molecule, how does the plant injury at 125 g/ha [1] read?
A: Its plant injury at 125 g/ha is 60%.

Q: What about the plant injury at 500 g/ha [1] of the same molecule?
A: The plant injury at 500 g/ha was 60%.

Q: And the pest or weed control at 125 g/ha [2]?
A: Its pest or weed control at 125 g/ha is 0%.

Q: What about the pest or weed control at 500 g/ha [2] of the same molecule?
A: The pest or weed control at 500 g/ha was 0%.

Q: What about the pest or weed control at 125 g/ha [3] of the same molecule?
A: Its pest or weed control at 125 g/ha is 90%.

Q: What about the pest or weed control at 500 g/ha [3] of the same molecule?
A: The pest or weed control at 500 g/ha was 90%.

Q: What about the pest or weed control at 125 g/ha [4] of the same molecule?
A: The pest or weed control at 125 g/ha was 0%.

Q: What about the pest or weed control at 500 g/ha [4] of the same molecule?
A: The pest or weed control at 500 g/ha was 50%.

Q: And the pest or weed control at 125 g/ha [5]?
A: Its pest or weed control at 125 g/ha is 60%.

Q: What about the pest or weed control at 500 g/ha [5] of the same molecule?
A: The pest or weed control at 500 g/ha was 60%.

Q: What about the plant injury at 125 g/ha (corn (Zea mays)) of the same molecule?
A: The plant injury at 125 g/ha was 70%.

Q: What about the Corn plant response rating (crop injury, 0 = no effect, 100 = complete kill) at 500 g/ha (corn (Zea mays)) of the same molecule?
A: Its Corn plant response rating (crop injury, 0 = no effect, 100 = complete kill) at 500 g/ha is 80%.

Q: What does the source list for `CN1C[C@H](c2ccc3c(c2)CCO3)[C@@H](C(=O)Nc2cccc(F)c2F)C1=O` [Compound 1324]?
A: plant injury at 125 g/ha [1]: 30%; plant injury at 500 g/ha [1]: 70%; pest or weed control at 125 g/ha [2]: 20%; pest or weed control at 500 g/ha [2]: 40%; pest or weed control at 125 g/ha [3]: 90%; pest or weed control at 500 g/ha [3]: 90%; pest or weed control at 125 g/ha [4]: 0%; pest or weed control at 500 g/ha [4]: 20%; pest or weed control at 125 g/ha [5]: 30%; pest or weed control at 500 g/ha [5]: 50%; plant injury at 125 g/ha (corn (Zea mays)): 60%; Corn plant response rating (crop injury, 0 = no effect, 100 = complete kill) at 500 g/ha (corn (Zea mays)): 80%

Q: Which results are given for `O=C1NC[C@H](c2ccc(OC(F)F)cc2)[C@H]1C(=O)Nc1ccc(F)cc1F` [Compound 1325]?
A: plant injury at 125 g/ha [1]: 0%; plant injury at 500 g/ha [1]: 0%; pest or weed control at 125 g/ha [2]: 0%; pest or weed control at 500 g/ha [2]: 0%; pest or weed control at 125 g/ha [3]: 90%; pest or weed control at 500 g/ha [3]: 90%; pest or weed control at 125 g/ha [4]: 70%; pest or weed control at 500 g/ha [4]: 90%; pest or weed control at 125 g/ha [5]: 80%; pest or weed control at 500 g/ha [5]: 90%; plant injury at 125 g/ha (corn (Zea mays)): 0%; Corn plant response rating (crop injury, 0 = no effect, 100 = complete kill) at 500 g/ha (corn (Zea mays)): 50%

Q: `Cc1c(F)ccc([C@H]2CNC(=O)[C@@H]2C(=O)Nc2ccccc2F)c1F` [Compound 1326] was tested. Which plant injury at 125 g/ha [1] did it give?
A: The plant injury at 125 g/ha was 0%.

Q: And the plant injury at 500 g/ha [1]?
A: Its plant injury at 500 g/ha is 0%.

Q: What about the pest or weed control at 125 g/ha [2] of the same molecule?
A: Its pest or weed control at 125 g/ha is 0%.

Q: What about the pest or weed control at 500 g/ha [2] of the same molecule?
A: Its pest or weed control at 500 g/ha is 0%.

Q: And the pest or weed control at 125 g/ha [3]?
A: Its pest or weed control at 125 g/ha is 70%.

Q: And the pest or weed control at 500 g/ha [3]?
A: Its pest or weed control at 500 g/ha is 90%.

Q: And the pest or weed control at 125 g/ha [4]?
A: The pest or weed control at 125 g/ha was 0%.

Q: What about the pest or weed control at 500 g/ha [4] of the same molecule?
A: Its pest or weed control at 500 g/ha is 0%.

Q: And the pest or weed control at 125 g/ha [5]?
A: The pest or weed control at 125 g/ha was 0%.

Q: And the pest or weed control at 500 g/ha [5]?
A: Its pest or weed control at 500 g/ha is 20%.

Q: What about the plant injury at 125 g/ha (corn (Zea mays)) of the same molecule?
A: Its plant injury at 125 g/ha is 0%.

Q: What about the Corn plant response rating (crop injury, 0 = no effect, 100 = complete kill) at 500 g/ha (corn (Zea mays)) of the same molecule?
A: The Corn plant response rating (crop injury, 0 = no effect, 100 = complete kill) at 500 g/ha was 0%.
